Patent publication US20250161238A1, “NMDAR Antagonists Prevent Ageing and Aging-Associated Conditions and Diseases Through Increasing 20S Proteasome Activity” (priority 2022, published 2025)
“Also recorded” adds a separate entry of the source.

How the values were obtained:
LC3 = assay: Autophagy: LC3 turnover and LC3 puncta in HepG2 stably expressing LC3; type: cell-based, human; details: HepG2 cell stably expressing LC3
From the text: One of the most experimentally straightforward method to monitor autophagic activity is the detection of microtubule-associated protein light chain 3 (LC3) protein processing. LC3 is the only known protein that is specifically associated with all types of autophagic membranes, including phagophore, autophagosome and autolysosome (a hybrid organelle formed by fusion of the autophagosome and lysosome). LC3 is specifically associated with the autophagosome. Upon the autophagy induction, the cytosolic LC3 (LC3-I) is conjugated to phosphatidylethanolamine (PE) to form lipidated LC3 (LC3-II). LC3-II binds to the expanding isolation membrane and remains bounded to complete autophagosome. Therefore, the amount of LC3-II correlates well with the number of autophagosomes, which is widely used as a marker for the autophagosome. Autophagy is a multi-step process which includes not just the formation of autophagosomes, but most importantly, the flux through the entire system, including the degradation of LC3-II upon fusion with lysosomes. Therefore, the expected result is that the LC3-II protein is degraded for complete autophagy. […] However, total amount of LC3 (LC3-I plus LC3II) was not changed.
The other basic protocol for the outophagy detection is monitoring the number of autophagosomes by visualizin LC3 puncta using flourescence microscopy. […]

[1] = animals studies; cited from earlier work
mice = assay: Color change and condition of fur of aged mice; type: in vivo; details: 22 months of age; 3 mg/Kg/per day with drinking water
From the text: Ten mice, one year old, were supplied for the study. The mice were divided into two groups and one added memenatine to their drinking water, while the other group was designated as the control group. Mice were followed until they were 2 years old. Clinical frailty tests were investigated and compared in the two groups of mice at 22 months. The simplest and most easly determined findings of clinical signs of deterioration in aging mice are the evaluation of changes in mouse skin.
The experimental protocols were approved by the Ethics Committee of Ankara University, Faculty of Medicine, Medical Sciences Experimental Research and Application Center (Date: Dec. 11, 2019 and Decision number: 2019-22-189). Adult (12-mounts-old) C57BL/6 mice (5 for each group) were used. The mice were housed at the Experimental Animal Research Laboratory of Ankara University Faculty of Medicine. Food and water were given without restriction. The ambient temperature was kept at 21±2° C., and locomotor activity tests were performed at this temperature. The animals were housed in a room with a 12-hour light/dark cycle. The procedures in the study were performed in accordance with the Ankara University Animal Care Committee according to international guidelines. […] Tests related to locomotor activities of the mice were recorded and available.

[2] = cited from earlier work
[3] = tested on: human mesenchymal stem cells; assay: Differentiation markers of mesenchymal stem cells (western blot); type: cell-based; details: day 14
From the text: We investigated the differentiation of stem cells in the presence of memantine after cell passages using the simple differentiation method using the DMEM/F12, 10% FBS without coculture of mouse fibroblast (Yoo et all. 2020).
Cell were harvested at day 14 for western blot and the protein expression amounts of the differentiation markers cd44, cd73, and cd90 were investigated. […] Another indicator of the stem cell differentiation is the determination of the amounts of lipid droplet in the cell. Fourteen-day cell passage is caused to increase lipid in the cell. It was observed that memantine treatment has prevented the amount of lipid droplet (FIG. 36D).

lipid accumulation = assay: Nile red staining of lipid in mouse tissues; type: in vivo; details: mice at 22 months
From the text: In the next study, the effects of NMDAR blocker on lipid accumulation in liver, brain, muscle, lung, skin, pancreas, and kidney of mice with the presence of Memantine and control mice groups at 22 months were stained with Nile red and investigated.
Whole frozen tissues were sectioned with a microtome and fixed in 4% paraformaldehyde, Tissues were washed in PBS and the individual staining methods used in accordance with the manufacturer's recommendations. Total pixels from fluorescence in the images were quantified using Adobe Photoshop software CS2 (Adobe Systems), and normalized to a nuclear stain.

mice with GD symptoms = details: cited from earlier work
[4] = humans, 20 mg per day; cited from earlier work

SMILES: CNC1(c2ccccc2Cl)CCCCC1=O (stereo not shown) [ketamin, 2-(2-chlorophenyl)-2-(methylamino)-cyclohexanone]
- total amount of LC3 (LC3-I plus LC3II) (LC3): not changed
- LC3-II amount (LC3; western blot): increase

SMILES: CC12CC3CC(C)(C1)CC(N)(C3)C2 [memantine, 3,5-dimethyladamantan-1-amine]
- induction of HSP, neuronal vacuolization and necrosis [1]: No induction
- color change and condition of mouse fur (mice): very different in favor of those who received memantine
- free rat brain concentrations, lower in plasma [2]: 20-30%
- increase in cd44 protein expression [3]: statistically significantly less
- increase in cd73 protein expression [3]: statistically significantly less
- increase in cd90 protein expression [3]: statistically significantly less
- amount of lipid in liver, brain, muscle, lung, and skin (lipid accumulation): less than that of the control group
- amount of lipid in pancreas and kidney (lipid accumulation): No clear difference
- life span of mice with Gaucher disease symptoms (mice with GD symptoms; A/J, C3H/HeJ, DBA/2J, C57BL6/JolaHsd, CBE 25 mg/kg day): dramatically extended; also recorded: extend the lifespan
- life span with memantine dose increased by 10 fold (mice with GD symptoms; mouse, in vivo): increases the life span of mice even more
- serum levels [4]: 500 to 1000 nM
